Laboratory results from the NIST ThermoML archive (doi:10.1016/j.tca.2013.10.017).

Assay: xn = mol fraction of the nth substance listed
Details: for surface tension liquid-gas: Ring tensiometer; for mass density: 101 kPa, Liquid, Vibrating tube method

C[N+](C)(C)CCO.[Cl-] [choline chloride] + O=C[C@H](O)[C@@H](O)[C@H](O)[C@H](O)CO
x1 = 0.67
Details	surface tension liquid-gas [mN/m]
298.15 K	71.71
308.15 K	71.11
318.15 K	70.42
328.15 K	69.95
338.15 K	69.44
348.15 K	68.91
358.15 K	68.61

CCN(CC)CCO.Cl [2-(diethylamino)ethanol hydrochloride] + OCC(O)CO
x1 = 0.2
Details	mass density [kg/m3]	surface tension liquid-gas [mN/m]
298.15 K	1205	58.94
303.15 K	1202	58.33
308.15 K	1199	57.63
313.15 K	1196	56.99
318.15 K	1193	56.39
323.15 K	1188	55.73
328.15 K	1187	55.16

O=C(CO)[C@@H](O)[C@H](O)[C@H](O)CO [D-fructose] + C[N+](C)(C)CCO.[Cl-]
x2 = 0.67
Details	surface tension liquid-gas [mN/m]
298.15 K	74.01
308.15 K	71.98
318.15 K	70.02
328.15 K	68.03
338.15 K	65.98
348.15 K	64.02
358.15 K	62.05

C[P+](c1ccccc1)(c1ccccc1)c1ccccc1.[Br-] [methyltriphenylphosphonium bromide] + OCC(O)CO
x1 = 0.25
Details	surface tension liquid-gas [mN/m]
298.15 K	59.35
303.15 K	58.81
308.15 K	58.2
313.15 K	57.68
318.15 K	57.06
323.15 K	56.45
328.15 K	55.95

C[N+](C)(C)CCO.[Cl-] [choline chloride] + OCC(O)CO
x1 = 0.33
Details	surface tension liquid-gas [mN/m]
298.15 K	57.24
303.15 K	56.85
308.15 K	56.43
313.15 K	55.93
318.15 K	55.45
323.15 K	55.03
328.15 K	54.55

C[P+](c1ccccc1)(c1ccccc1)c1ccccc1.[Br-] [methyltriphenylphosphonium bromide] + OCCO
x1 = 0.2
Details	mass density [kg/m3]	surface tension liquid-gas [mN/m]
298.15 K	1289	47.51
303.15 K	1286	47.06
308.15 K	1282	46.57
313.15 K	1278	46.12
318.15 K	1275	45.59
323.15 K	1271	45.12
328.15 K	1267	44.64

C[N+](C)(C)CCO.[Cl-] [choline chloride] + OCCO
x1 = 0.33
Details	mass density [kg/m3]	surface tension liquid-gas [mN/m]
298.15 K	1118	48.91
303.15 K	1116	48.43
308.15 K	1112	47.97
313.15 K	1110	47.5
318.15 K	1106	47.03
323.15 K	1104	46.67
328.15 K	1101	46.11

CCN(CC)CCO.Cl [2-(diethylamino)ethanol hydrochloride] + OCCO
x1 = 0.25
Details	mass density [kg/m3]	surface tension liquid-gas [mN/m]
298.15 K	1100	51.29
303.15 K	1097	50.74
308.15 K	1093	50.17
313.15 K	1090	49.63
318.15 K	1087	49.14
323.15 K	1084	48.67
328.15 K	1081	48.12
